The results in this text go back to US20220226282A1 (priority 2021, published 2022).

Values joined by “and” are separate entries in the source; they are usually repeats but may differ in a detail not shown here. Equal entries are not always repeated. Where two headings read alike, the source gives them in different places.

Assay [1] concerns the target T1, BoNT/A LC (Clostridium botulinum, UniProt P0DPI0). Put plainly: biochemical. Details: species or system C. botulinum. The note with it: read-out: % inhibition of the LCA endopeptidase activity.
Assay [2] deals with T1, BoNT/A LC. The assay can be described thus: biochemical. Format: biochemical, C. botulinum.
Assay [3] addresses T1, BoNT/A LC. Put plainly: biochemical. The assay is classed as binding, C. botulinum.
Assay [4] concerns the target T1, BoNT/A LC. The assay can be described thus: biochemical. The assay is classed as binding, C. botulinum. This is another data set of the same source.

T1 sequence (P0DPI0 2-448 limits assumed): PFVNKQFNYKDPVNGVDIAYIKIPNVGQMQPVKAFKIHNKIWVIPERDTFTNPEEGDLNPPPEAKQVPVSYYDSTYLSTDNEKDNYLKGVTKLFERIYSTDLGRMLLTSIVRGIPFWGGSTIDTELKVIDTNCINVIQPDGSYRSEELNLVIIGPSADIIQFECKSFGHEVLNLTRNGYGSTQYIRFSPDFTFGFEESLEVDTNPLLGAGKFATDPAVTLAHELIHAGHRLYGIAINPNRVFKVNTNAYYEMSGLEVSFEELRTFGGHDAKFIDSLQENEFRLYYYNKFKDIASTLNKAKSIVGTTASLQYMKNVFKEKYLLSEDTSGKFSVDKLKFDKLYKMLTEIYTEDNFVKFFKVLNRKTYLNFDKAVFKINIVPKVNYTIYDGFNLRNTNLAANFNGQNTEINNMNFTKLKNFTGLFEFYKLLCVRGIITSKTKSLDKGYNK

A word on the inhibition: it is the percentage by which the read-out fell short of the control. The term Ki denotes a measure of affinity in units of concentration, obtained from inhibition or displacement. High values mean weaker binding, low ones tighter binding. The Kd is a measure of binding affinity in units of concentration. Read a low Kd as a tighter complex. For `O=c1ccc2cc3c(-c4ccc([N+](=O)[O-])cc4)coc3cc2o1` [Compound 1, 3-(4-nitrophenyl)-7H-furo[3,2-g]chromen-7-one], the inhibition at 81 µM on BoNT/A LC [1] is about 100%. At BoNT/A LC [2], the Vmax is 2.13 ± 0.5 RFU/s and 2.09 ± 0.2 RFU/s and 1.56 ± 1.1 RFU/s; the type of inhibition entry is “mixed (non-competitive) type of inhibition”. This molecule displayed a Ki on BoNT/A LC [2] (Ki) of 5.8 ± 0.7 µM. The same molecule returned a Ki at BoNT/A LC [2] (Ki′) of 11.5 ± 2.9 µM. In addition, on BoNT/A LC [3], the “corrected intensity of Trp fluorescence signal at λmax of BoNT/A LC (signal reduced to)” value is 88% and 84% and 73% and 59%; the “n (number of binding sites)” value turned out to be 0.90; the ΔH is -70.8 kJ/mol; the ΔS is −0.15 kJ · mol^−1 K^−1. For the same molecule, on BoNT/A LC [3] (Ka (binding constant)), the Kd was 38 µM and 115 µM. On BoNT/A LC [4], the “Ka (association constant)” value worked out at 760900 M⁻¹; the Kd came to 1310 nM; the “N (number of binding sites, binding stoichiometry)” value was 2.8 and 2.760; the “ΔH (change in enthalpy)” value was -10.00 kJ/mol. The “ΔS (change in entropy)” value on BoNT/A LC [4] was determined as 79.05 J/mol · K. The “antidote activity against paralytic actions of BoNT” value in the assay on BoNT is given as “efficient antidote with the ability to mitigate the paralytic actions of BoNT”.
